Data: patent publication US5939458A, “Reduction of hair growth” (priority 1997, dated 1999)

What was measured:
[1] = system: flank organ hair growth; assay: Golden Syrian hamster assay (flank organ hair mass after thirteen topical applications); format: in vivo
Description: Male intact Golden Syrian hamsters are considered acceptable models for human beard hair growth in that they display oval shaped flank organs, one on each side, each about 8 mm. in major diameter, which grow thick black and coarse hair similar to human beard hair. These organs produce hair in response to androgens in the hamster. To evaluate the effectiveness of a composition including an aminoacyl-tRNA synthetase inhibitor, the flank organs of each of a group of hamsters are shaved. To one organ of each animal 10 μl. of vehicle alone once a day is applied, while to the other organ of each animal an equal amount of vehicle containing a aminoacyl-tRNA inhibitor is applied. After thirteen applications (one application per day for five days a week), the flank organs are shaved and the amount of recovered hair (hair mass) from each is weighed. Percent-reduction of hair growth is calculated by subtracting the hair mass (mg) value of the test compound treated side from the hair mass value of the vehicle treated side; the delta value obtained is then divided by the hair mass value of the vehicle treated side, and the resultant number is multiplied by 100.
The above-described assay will be referred to herein as the "Golden Syrian hamster" assay. Preferred compositions provide a reduction in hair growth of at least about 25%, more preferably at least about 50%, and most preferably at least about 60% when tested in the Golden Syrian hamster assay.

[2] = system: Leucine tRNA synthetase (hair follicle extract); assay: Hair follicle aminoacyl-tRNA synthetase inhibition, 14C leucine incorporation; format: biochemical; settings: 0.96 μmole/ml inhibitor (leucinamide: similar concentration); 37° C., 60 minutes
Experimental: Inhibition of hair follicle aminoacyl-tRNA synthetase was determined using a modification of the procedure described by Hampel et. al (Aminoacyl-tRNASynthetases from Cultured CHO Cells (1979) Methods in Enzymology, Vol. LIX, pp 229-234). A reaction mixture containing the following was used for each assay: 50 mM Tris (pH 7.4), 15 mM MgCl2, 0.5 mM EDTA (adjusted to pH 7), 5 mM ATP (adjusted to pH 7, 0.35 mM CTP, 20 μM ^14 C amino acid and tRNA (50 μg/ml). Leucine and serine tRNA synthetase were assayed with a pH 8.6 buffer and a MgCl2 concentration of 8 mM. The reaction mixture is mixed with the hair follicle extract so that the final assay volume is 100 μl. Typically, 90-95 μl of the reaction mixture was mixed with 5-10 μl of the hair follicles extract. The reaction was carried out at 37° C. for 60 minutes. The reaction was terminated by removing the reaction mixture and placing it on a piece of filter paper that had been soaked with 10% trichloroacetic acid. The filter paper was washed 3 times in 10% trichloroacetic acid and 3 times in 5% trichloroacetic acid. The filter paper was dried and the insoluble radioactivity, corresponding to the ^14 C-aminoacyl-tRNA, was counted in a scintillation counter.
The incorporation of the ^14 C amino acid varied from 178 dpm/mM to 3,093 dpm/mM in the assays of the amino acids mentioned above. […]

[3] = Table 2 dose response, dose 1%, pH 5.5, vehicle 90% H2O, 6% dipropylene glycol, 4% ethanol
[4] = Table 2 dose response, dose 5%, pH 6.5, vehicle 90% H2O, 6% dipropylene glycol, 4% ethanol
[5] = Table 2 dose response, dose 7.5%, pH 6.5, vehicle 90% H2O, 6% dipropylene glycol, 4% ethanol
[6] = Table 1, dose 15%, vehicle B, pH 6.5

N[C@@H](CSC(c1ccccc1)(c1ccccc1)c1ccccc1)C(=O)O [S-trityl-L-cysteine]
% Inhibition of hair growth [1, 3]: 35 ± 9% | Treated (mg) hair mass [1, 3]: 0.88 ± .10 mg | % Inhibition of hair growth [1, 4]: 56 ± 6% | Treated (mg) hair mass [1, 4]: 0.90 ± .17 mg | % Inhibition of hair growth [1, 5]: 80 ± 6% | Treated (mg) hair mass [1, 5]: 0.35 ± .10 mg | Dose response of hair growth reduction ([1]; increasing the concentration of the inhibitor in the composition): increased hair growth reduction

CC(C)C[C@H](N)CO [L-leucinol]
inhibition of leucine incorporation [2]: 18%

CSCCC(C)(N)C(=O)O (racemic) [α-methyl-DL-methionine]
% Inhibition of hair growth [1, 6]: 31 ± 7% | Treated (mg) hair mass [1, 6]: 1.10 ± .15 mg

CC(C)CC(N)C(N)=O (centres unmarked) [lucinamide]
inhibition of leucine incorporation [2]: 83%
